Values joined by “and” are separate entries in the source; they are usually repeats but may differ in a detail not shown here. Equal values may be shown once. Read-outs that look alike come from different tables or passages of the source.
Experiments:
[1] = target: Deep Ventr (exo-) polymerase (Pyrococcus sp., UniProt Q51334, D141A/DEL493-1029/E143A); type: biochemical, Pyrococcus species GB-D
Ventr (exo-) polymerase = target: T1, Ventr (exo-) polymerase (Thermococcus litoralis, UniProt P30317, D141A/DEL1082-1471/DEL495-1032/E143A); type: biochemical; conditions: for Amplification yield (% of C+): Ventr (exo-), 0.5 mM MnCl2
T1 construct: purchased New England Biolabs
T1 sequence (P30317 other isoform, or with tags, fused parts or gaps D141A/E143A/DEL495-1032/DEL1082-1471): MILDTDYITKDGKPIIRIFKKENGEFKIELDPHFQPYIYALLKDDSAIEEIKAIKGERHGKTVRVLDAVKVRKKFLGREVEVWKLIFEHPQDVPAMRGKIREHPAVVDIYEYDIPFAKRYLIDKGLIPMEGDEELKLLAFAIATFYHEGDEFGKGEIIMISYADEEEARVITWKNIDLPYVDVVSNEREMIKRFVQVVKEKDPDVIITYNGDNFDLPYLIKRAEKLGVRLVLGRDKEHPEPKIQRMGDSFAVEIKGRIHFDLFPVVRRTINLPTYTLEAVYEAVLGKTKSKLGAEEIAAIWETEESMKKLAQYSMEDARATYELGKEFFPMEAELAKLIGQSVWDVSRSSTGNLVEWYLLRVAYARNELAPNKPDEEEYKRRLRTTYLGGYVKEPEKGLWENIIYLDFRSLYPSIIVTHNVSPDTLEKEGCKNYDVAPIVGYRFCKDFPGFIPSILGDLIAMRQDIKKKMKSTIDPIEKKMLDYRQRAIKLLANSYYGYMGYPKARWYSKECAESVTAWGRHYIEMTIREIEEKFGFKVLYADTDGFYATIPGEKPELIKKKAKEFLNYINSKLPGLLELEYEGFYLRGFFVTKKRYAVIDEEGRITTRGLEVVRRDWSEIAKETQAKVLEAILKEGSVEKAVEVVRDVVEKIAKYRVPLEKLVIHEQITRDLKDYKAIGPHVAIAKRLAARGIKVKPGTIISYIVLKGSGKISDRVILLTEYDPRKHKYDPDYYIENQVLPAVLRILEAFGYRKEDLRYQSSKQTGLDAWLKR
Method: (§1) Control PCR condition: 2 units of Vent exo^−DNA polymerase were used in a 50 μL reaction volume containing 200 μM of each dNTPs, 10mM KCl, 10mM (NH4)2SO4, […] pH 8.8, 2mM MgSO4, 0.1% Triton™ X-100, 0.2 μM of each primers and 10ng of plasmid DNA. PCR were performed in a GeneAmp PCR system 9700 (Perkin-Elmer) as follows: 5 min at 95° C. (first denaturation), followed by 30 cycles of polymerisation [30 s at 95° C. (denaturation), 30 s at 65° C. (annealing) , 2 min at 72° C. (polymerisation)].
(§2) When a modified dNTPs ratio was used, fmal concentrations were 200 μM for dATP and dTTP and 800 μM for dCTP and dGTP.
Enzymatic activity of DNA polymerases has been determined by ethidium bromide staining of 1% agarose gel. Band intensity of 2 μL aliquots of amplicon issued from mutagenic PCR were compared to the intensity of bands obtained from several dilutions of standard PCR.
In order to assess the impact of the chemical stress induced by alcohols and urea on PCR, we measured the amplification yield was measured and compared it to that of a standard PCR. The size of a library generated by error-prone PCR is proportional to the amplification yield, therefore it is of a paramount importance to maintain the amplification yield as high as possible. Concentration of alcohol leading to a reduction in amplification yield was detected were chosen to determine their impact on amplified sequences. Such concentrations were defined as “critical” concentration of alcohol.

Taq polymerase = Taq polymerase (Thermus aquaticus, UniProt P19821); type: biochemical
Taq polymerase, sequence (P19821 whole entry): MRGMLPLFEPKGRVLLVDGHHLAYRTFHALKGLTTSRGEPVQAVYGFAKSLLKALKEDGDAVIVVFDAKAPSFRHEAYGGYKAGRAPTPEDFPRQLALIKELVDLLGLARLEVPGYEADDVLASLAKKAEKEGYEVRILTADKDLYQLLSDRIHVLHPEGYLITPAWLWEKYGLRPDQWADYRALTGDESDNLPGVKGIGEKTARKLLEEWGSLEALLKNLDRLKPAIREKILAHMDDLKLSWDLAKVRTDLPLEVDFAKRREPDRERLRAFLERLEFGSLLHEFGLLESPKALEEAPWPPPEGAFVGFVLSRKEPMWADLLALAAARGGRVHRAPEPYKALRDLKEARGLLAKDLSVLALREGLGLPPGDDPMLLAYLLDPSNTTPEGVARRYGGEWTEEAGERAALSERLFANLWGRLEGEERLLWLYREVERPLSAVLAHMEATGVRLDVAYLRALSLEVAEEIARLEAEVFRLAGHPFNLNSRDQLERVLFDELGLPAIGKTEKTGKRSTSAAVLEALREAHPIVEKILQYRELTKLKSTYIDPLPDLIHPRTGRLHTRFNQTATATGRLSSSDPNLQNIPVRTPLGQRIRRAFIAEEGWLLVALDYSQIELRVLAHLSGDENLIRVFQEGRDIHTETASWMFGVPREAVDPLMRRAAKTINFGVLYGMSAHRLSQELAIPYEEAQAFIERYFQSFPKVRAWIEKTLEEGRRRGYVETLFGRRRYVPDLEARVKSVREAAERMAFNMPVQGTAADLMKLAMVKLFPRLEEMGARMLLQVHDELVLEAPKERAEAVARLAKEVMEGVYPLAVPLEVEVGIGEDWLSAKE

[2] = target: T2, Ventr (exo-) DNA polymerase (Thermococcus litoralis, UniProt P30317, D141A/DEL1082-1471/DEL495-1032/E143A); assay: PCR measuring maximal length of amplification; type: biochemical
T2 construct: purchased New England Biolabs
T2 sequence (P30317 other isoform, or with tags, fused parts or gaps D141A/E143A/DEL495-1032/DEL1082-1471): as the sequence (P30317 other isoform, or with tags, fused parts or gaps D141A/E143A/DEL495-1032/DEL1082-1471) above
Method: (§3) 100ng of genomic DNA from Actinobacillus pleuropneumoniae was used as template. PCR cycles were as follows: 7 min at 95° C., then 30 cycles of polymerisation [45 s at 95° C., 45 s at 53° C., 1 min at 72°^C].

[3] = target: T2, Ventr (exo-) DNA polymerase; type: biochemical
Method: The template used for PCR is the gene coding for MB-1 His (384 bp) (Grundy J. et al., (1998) Journal of Biotechnology, 63:9-15) cloned in the 6.6kb pMAL-c2 vector (New England Biolabs, cat no. M0257S). The template was obtained by plasmid purification of E. coli with XL-1 Blue (Stratagene) Miniprep protocol (Qiagen) and quantified using UV spectrometry.
as §1, §2
pMAL-c2 vector (New England Biolabs) was digested with SacI and HindIII endonucleases (New England Biolabs) and gel purified (1% agarose) using Qiaex gel extraction kit (Qiagen) and Agarose A from LAB MAT. The 384 bp PCR products were also gel purified. […] The purified products were then concatenated in a kination/ligation using T4 Polynucleotide kinase and T4 DNA ligase (New England Biolabs) for 3 hours at room temperature followed by a restriction digestion using SacI and HindIII endonucleases for 5 hours at 37° C. Then, the digested PCR products were purified using PCR purification kit (Qiagen) and ligated with pMAL-c2 vector using T4 DNA ligase at 16° C. overnight.
5 μL of ligation product mixed with 50 μL of E. coli XL-1 Blue hypercompetent cells were incubated on ice for 30 min, heatshocked at 42° C. for 45 sec and re-incubated on ice for 2 min. Then, 1mL of SOC medium was added and the mixture was incubated for 1 hour at 37° C. with shaking. Transformed Cells were then selected on LB agar plates containing 100 μg/mL ampicillin.
Plasmids from transformant colonies were purified with Qiaprep Spin miniprep kit (Qiagen) and digested with SacI/HindIII to confirm the presence of the 384 bp fragment corresponding to MB-1 His gene. Plasmids were then sequenced by the dye-terminator method (Service d'analyse et de synthèse, Université Laval). Complete sequences were analysed with LFASTA software (Chao K. M. (1998), Comput. Appl. Biosci., 8:481-487), allowing for comparison of control and mutated DNA. Mutation rate and mutation types were calculated from such a comparison.

Taq DNA polymerase [4] = target: T3, Taq DNA polymerase (Thermus aquaticus, UniProt P19821); type: biochemical
T3 sequence (P19821 whole entry): as the sequence (P19821 whole entry) above

Taq DNA polymerase [5] = target: T3, Taq DNA polymerase; conditions: 0.5 mM MnCl2, Equimolar dNTPs
Method: as §3

[6] = concentration leading to reduction in amplification yield
[7] = Ventr (exo-) polymerase, concentration leading to reduction in amplification yield
[8] = Taq polymerase, concentration leading to reduction in amplification yield
[9] = Ventr (exo-), 0.5 mM MnCl2, AG/CT = 1/4
[10] = Ventr (exo-), 0.5 mM MnCl2, AG/CT = 1/4, % of total mutations
[11] = Ventr (exo-), 0.5 mM MnCl2, AT/GC = 1/4
[12] = Ventr (exo-), 0.5 mM MnCl2, AT/GC = 1/4, % of total mutations
[13] = Ventr (exo-), 0.5 mM MnCl2, Equimolar dNTPs
[14] = Ventr (exo-), 0.5 mM MnCl2, Equimolar dNTPs, % of total mutations
[15] = Ventr (exo-), 0.5 mM MnCl2, Equimolar dNTPs, listed as manganese
[16] = Taq, 0.5 mM MnCl2, Equimolar dNTPs
[17] = Taq, 0.5 mM MnCl2, Equimolar dNTPs, % of total mutations

Deep Ventr (exo-) polymerase, sequence (Q51334 other isoform, or with tags, fused parts or gaps D141A/E143A/DEL493-1029): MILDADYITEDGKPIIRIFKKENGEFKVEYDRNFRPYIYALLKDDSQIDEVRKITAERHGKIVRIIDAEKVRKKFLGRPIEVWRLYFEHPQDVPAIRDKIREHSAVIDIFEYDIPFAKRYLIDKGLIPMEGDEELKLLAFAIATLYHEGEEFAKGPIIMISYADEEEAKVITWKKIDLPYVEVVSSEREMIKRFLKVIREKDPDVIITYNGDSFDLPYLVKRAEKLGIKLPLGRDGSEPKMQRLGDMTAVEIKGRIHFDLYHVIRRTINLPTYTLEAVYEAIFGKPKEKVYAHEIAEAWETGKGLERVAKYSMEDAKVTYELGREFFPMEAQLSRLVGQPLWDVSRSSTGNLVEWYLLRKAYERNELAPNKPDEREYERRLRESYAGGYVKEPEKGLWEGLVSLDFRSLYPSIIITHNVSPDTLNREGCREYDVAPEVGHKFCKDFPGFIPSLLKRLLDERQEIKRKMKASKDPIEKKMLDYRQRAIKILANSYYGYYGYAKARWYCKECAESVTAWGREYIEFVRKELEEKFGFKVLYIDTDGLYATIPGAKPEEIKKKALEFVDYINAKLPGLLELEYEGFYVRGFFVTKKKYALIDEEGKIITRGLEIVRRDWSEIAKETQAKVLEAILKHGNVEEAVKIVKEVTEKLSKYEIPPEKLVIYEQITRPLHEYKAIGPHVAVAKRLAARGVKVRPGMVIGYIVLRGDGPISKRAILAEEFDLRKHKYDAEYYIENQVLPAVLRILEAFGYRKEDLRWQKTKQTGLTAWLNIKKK

## Butanol
[1]; [6]
  Critical concentration: 6.0 % v/v
Ventr (exo-) polymerase; [7]
  Critical concentration: 4.0 % v/v
Taq polymerase; [8]
  Critical concentration: 1.0 % v/v

## manganese chloride [MnCl2]
Ventr (exo-) polymerase; AG/CT = 1/4
  Amplification yield (% of C+): 75 % of C+
Ventr (exo-) polymerase; AT/GC = 1/4
  Amplification yield (% of C+): 75 % of C+
Ventr (exo-) polymerase; Equimolar dNTPs
  Amplification yield (% of C+): 75 % of C+
[2]; 0.5 mM MnCl2, AG/CT = 1/4
  Maximal lenght of amplification: 0.8 kb
[2]; 0.5 mM MnCl2, AT/GC = 1/4
  Maximal lenght of amplification: 1.6 kb
[2]; 0.5 mM MnCl2, Equimolar dNTPs
  Maximal lenght of amplification: 0.8 kb
[3]; [9]
  Deletion Frequency: 0.03%
  Mutation Frequency: 2.30%
[3]; [10]
  Bias indicator A, T turns N: 30%
  Bias indicator G, C turns N: 67%
  Bias indicator N turns A, T: 73%
[3]; [11]
  Deletion Frequency: 0.00%
  Mutation Frequency: 0.52%
[3]; [12]
  Bias indicator A, T turns N: 88%
  Bias indicator G, C turns N: 12%
  Bias indicator N turns A, T: 25%
[3]; [13]
  Deletion Frequency: 0.00%
  Mutation Frequency: 3.70%
[3]; [14]
  Bias indicator A, T turns N: 23%
  Bias indicator G, C turns N: 77%
  Bias indicator N turns A, T: 83%
[3]; [15]
  Deletion Frequency: without insertion or deletion
  Mutation Frequency: 3.7%
Taq DNA polymerase [4]; [16]
  Deletion Frequency: 0.04%
  Mutation Frequency: 8.48%
Taq DNA polymerase [4]; [17]
  Bias indicator A, T turns N: 72%
  Bias indicator G, C turns N: 24%
  Bias indicator N turns A, T: 43%
Taq polymerase; [16]
  Amplification yield (% of C+): 75 % of C+
Taq DNA polymerase [5]
  Maximal lenght of amplification: 0.4 kb

## NC(N)=O [Urea]
[1]; [6]
  Critical concentration: 1.5 % v/v
[1]; in molar
  Critical concentration: (0.25 M)
Ventr (exo-) polymerase; [7]
  Critical concentration: 1.5 % v/v
Ventr (exo-) polymerase; Ventr (exo-) polymerase, in molar
  Critical concentration: (0.25 M)
[3]; Ventr (exo-), critical concentration of urea, more than 2000 nucleotides sequenced
  mutation detected in PCR: did not detect mutation
Taq DNA polymerase [4]; Taq, critical concentration of urea, more than 2000 nucleotides sequenced
  mutation detected in PCR: did not detect mutation
Taq polymerase; [8]
  Critical concentration: 1.2 % v/v
Taq polymerase; Taq polymerase, in molar
  Critical concentration: (0.20 M)

## CCCO [Propanol, 1-propanol]
[1]; [6]
  Critical concentration: 8.0 % v/v
Ventr (exo-) polymerase
  Critical concentration: 8.0 % v/v
  polymerisation activity: no polymerisation activity
[3]
  Bias indicator A, T turns N: 25% and 24% and 14%
  Bias indicator G, C turns N: 67% and 62% and 86%
  Bias indicator N turns A, T: 67% and 71%
  Mutation Frequency: 0.98% and 0.27% and 0.58%
  mutation of guanines and cytosines, of total mutations: 67%
Taq DNA polymerase [4]
  Deletion Frequency: 0.04%
  Mutation Frequency: 0.13%
  mutations found: 3
Taq polymerase
  Amplification yield (% of C+): 50 % of C+
  Critical concentration: 2.5 % v/v
  polymerisation activity: no polymerisation activity

## CC(C)O [Isopropanol]
Ventr (exo-) polymerase; [7]
  Critical concentration: 10.0 % v/v

From patent US20050153303A1, “Method of mutagenic chain reaction” (priority 2003, published 2005)
